Patent US11564913B2, “Compositions and methods for treating cancer” (Children's Hospital Medical Center, priority 2019, dated 2023)

Key:
[1] = molecular target: p50GAP (Homo sapiens, UniProt Q07960); experiment: p50GAP-stimulated GTP-hydrolysis, stopped-flow; assay type: biochemical
[2] = system: MCF7, T47D, and MDA-MB-231 cells; experiment: Spheroid formation in ultra-low attachment plates, live cell count; assay type: cell-based; conditions: 0-3 μM, 5 days
Experimental: FIG. 6: IODVA1 inhibits cell-substratum and cell-cell interactions. (A) IODVA1 impedes spreading of MCF7 and MDA-MB-231 cells on fibronectin. MCF7, T47D, and MDA-MB-231 cells were incubated on fibronectin coated coverslips for 10 min, then further incubated with the indicated concentrations of IODVA1 for 30 min in serum-free media, fixed and observed by bright field microscopy. Areas of single cells were calculated from 6 random fields (no less than 300 cells total per treatment group). Results shown are mean±s.e.m. of a single experiment and are representative of three independent experiments. (B) Effects of IODVA1 treatment on spheroid formation in MCF10A, MCF7, T47D, and MDA-MB-231 cells. […] Aggregates and spheroids were dissociated with accutase and trituration, and the number of live cells was determined by trypan blue exclusion. […]
For the spheroid formation in the ultra-low attachment plates, MCF7, T47D, and MDA-MB-231 (5,000 cells) were incubated in complete media with IODVA1 at 0-3 μM for 5 days. Aggregates and spheroids were dissociated with Accutase and live cells were counted using trypan blue exclusion.
Spheroids were formed by the hanging drop method or using ultra-low attachment (ULA) plates (Corning). […] Spheroid formation was monitored daily and imaged using EVOS microscope (Life Technologies). […]

[3] = molecular target: T1, LARG (DH/PH) (Homo sapiens, UniProt Q9NZN5); experiment: Microscale thermophoresis (MST) binding; conditions: no saturation at highest concentration tested, read-out: Kd, best estimate
T1 construct: the catalytic domain (DH/PH) of the RhoGEF LARG served as negative control; MBP; made in house
Experimental: FIG. 14: IODVA1 targets Vav3 in vitro and in vivo. (A) Ba/F3 cells expressing empty vector Mieg3 or p190-BCR-ABL1 were treated with vehicle control or IODVA1 (IO1, 3 μM) for 30 min and incubated with GST-Rac and glutathione beads. Beads were washed and the protein complexes were separated on SDS-PAGE and immunoblotted for pVav3. Input Vav3 was used as control. (B) Binding affinity (Kd) between IODVA1 and Vav3 (green), LARG (brown), and RacGDP (blue). […] Error bars=SD; N=3. (C) Quantification of the average number of colonies made by bone marrow wild-type (black) and Vav3^−/− (lilac) p190-BCR-ABL1 leukemic cells treated with vehicle control or IODVA1 (IO1, 1 and 3 μM) (* p≤0.05; ** p≤0.01; *** p≤0.001; ns, not significant). (D) Representative histogram data of the cell cycle analysis of wild-type (black and grey bars) and Vav3^−/− (dark and light lilac) bone marrow cells expressing p190-BCR-ABL and treated with vehicle control or IODVA1 (IO1, 3 μM) for 20 h. (E) Quantification by densitometry of the pVav3 band from FIG. 14A. […]
To test this hypothesis, we measured its binding affinity (Kd) to recombinant Vav3 and Rac1 using microscale thermophoresis (MST); the catalytic domain (DH/PH) of the RhoGEF LARG served as negative control. […] Second, like Vav3, LARG contains a DH/PH domain responsible for the exchange activity such that any non-specific binding to this domain should be detected. […]

T1 sequence (Q9NZN5 765-1138 limits assumed): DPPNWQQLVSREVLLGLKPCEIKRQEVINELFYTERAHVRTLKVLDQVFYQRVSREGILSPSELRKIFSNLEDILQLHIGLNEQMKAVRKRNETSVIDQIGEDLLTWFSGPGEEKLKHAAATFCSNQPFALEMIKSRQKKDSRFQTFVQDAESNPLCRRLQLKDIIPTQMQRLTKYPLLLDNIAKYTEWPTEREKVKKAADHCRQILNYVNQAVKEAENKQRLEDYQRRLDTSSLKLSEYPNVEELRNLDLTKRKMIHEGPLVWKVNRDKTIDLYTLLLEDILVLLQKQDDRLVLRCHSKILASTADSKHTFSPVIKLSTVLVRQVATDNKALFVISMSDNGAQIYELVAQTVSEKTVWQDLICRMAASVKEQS
p50GAP, sequence (Q07960 whole entry): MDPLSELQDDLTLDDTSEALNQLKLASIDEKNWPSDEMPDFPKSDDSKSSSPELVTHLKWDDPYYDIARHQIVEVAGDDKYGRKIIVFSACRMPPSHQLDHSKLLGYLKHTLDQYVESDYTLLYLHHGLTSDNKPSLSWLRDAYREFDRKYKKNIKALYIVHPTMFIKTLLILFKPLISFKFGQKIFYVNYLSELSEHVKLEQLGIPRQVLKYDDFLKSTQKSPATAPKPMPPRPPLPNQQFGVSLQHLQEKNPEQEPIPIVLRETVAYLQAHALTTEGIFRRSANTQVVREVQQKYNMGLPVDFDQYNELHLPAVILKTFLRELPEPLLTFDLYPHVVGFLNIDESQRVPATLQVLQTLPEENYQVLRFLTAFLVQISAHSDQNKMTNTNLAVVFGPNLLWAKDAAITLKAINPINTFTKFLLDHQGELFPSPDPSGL

**Q.** With `OC1(c2ccccn2)N=C(Nc2nc3ccccc3[nH]2)N=C1c1ccccn1` (stereo not drawn) [IODVA1, (Z)-2-((1H-benzo[d]imidazol-2-yl)imino)-4,5-di(pyridin-2-yl)-2,5-dihydro-1H-imidazol-5-ol] as the compound, how does the “stimulation of the activity of p50GAP” value [1] read?
**A.** Its value is “does not stimulate”.

**Q.** And the “number of live cells in a spheroid” value [2]?
**A.** The value was “significantly decreased”.

**Q.** And the Kd [3]?
**A.** Its Kd is roughly 7.7 µM.
